Data taken from patent publication US20260001928A1 (CORTERIA PHARMACEUTICALS, priority 2022, published 2026).
*1 amine or outer side, *2 acyl side, *3 side chain or, on linkers, in order; H or OH if unused. Where a SMILES comes first, the peptide text is derived from it. Side-chain parts run from the residue outwards. [ ]: non-standard residue; d: D form. The star is where a group is joined. C18 diacid = O=C(O)CCCCCCCCCCCCCCCCC(=O)*; C16 diacid = O=C(O)CCCCCCCCCCCCCCC(=O)*; γGlu = O=C(O)[C@H](CCC(=O)[*:2])N[*:1]; NMeI = CC[C@H](C)[C@H](NC)C(=O)O; αMeL = CC(C)C[C@](C)(N)C(=O)O; Isovaleryl = CC(C)CC(=O)*; Aib = CC(C)(N)C(=O)O

Columns and labels:
human CRF2a receptor = biological target: T1, human CRF2a receptor (Homo sapiens, UniProt Q13324); assay: Activity at human CRF2a receptor, cAMP functional assay in TeloHEAC cells; assay type: cell-based; conditions: TeloHEAC cells stably expressing human CRF2a receptor, relative to urocortin 2 (100 nM = 100%)
T1 construct: expressed in transfected cells; host or cells: TeloHEAC cells
T1 sequence (Q13324 1-411): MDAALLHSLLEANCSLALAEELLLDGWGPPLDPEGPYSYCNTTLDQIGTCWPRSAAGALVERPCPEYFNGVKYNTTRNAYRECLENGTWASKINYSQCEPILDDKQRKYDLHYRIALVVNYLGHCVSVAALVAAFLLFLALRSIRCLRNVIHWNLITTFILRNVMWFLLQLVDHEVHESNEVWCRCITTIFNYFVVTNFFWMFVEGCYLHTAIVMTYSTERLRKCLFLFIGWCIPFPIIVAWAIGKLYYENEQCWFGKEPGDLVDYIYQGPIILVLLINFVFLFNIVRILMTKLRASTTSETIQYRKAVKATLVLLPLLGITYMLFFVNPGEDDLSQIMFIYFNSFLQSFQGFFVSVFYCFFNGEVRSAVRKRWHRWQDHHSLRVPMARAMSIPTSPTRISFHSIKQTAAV
Description: Agonism of compounds for human corticotropin-releasing factor 2a (CRF2a receptor) was determined by a functional assay measuring cAMP modulation upon treatment of TeloHEAC cells stably expressing human CRF2a receptor. Compounds were dissolved at 0.5 mM in 100% DMSO and serially diluted (1:2) in 100% DMSO for 16 dilutions. 20 nL of each dilution was then transferred to 384-well assay plate using an acoustic droplet ejection instrument. 5 μL of compound buffer (1×HBSS; 20 mM HEPES,) were then added to each well. Prior to use, frozen cells were thawed quickly at 37° C. and washed (5 min at 900 rpm) with 20 mL cell buffer (1×HBSS; 20 mM HEPES). Cells were resuspended in cell buffer added with 2 mM IBMX and adjusted to a cell density of […]. 5 μL cells (final dell density: 10000 cells/well) were dispensed in the compound-containing 384-well assay plate and incubated for 30 minutes 37° C. The cAMP level in treated cells was determined using the Cisbio 62AM4PEC kit according to manufacturer's instruction. Finally, plates were incubated for 1 h at room temperature before measuring the fluorescence ratio between 665/620 nm. The percent activity value (E %) was calculated by setting 100 nM of urocortin 2 (UCN2) as 100%. The in vitro potency of the compounds was quantified by determining the concentrations that caused 50% activation of maximal response (EC50) relative to urocortin 2.

CFR1R receptor = biological target: T2, CFR1R receptor (Homo sapiens, UniProt P34998); assay: Activity at anti-target CFR1R receptor, cAMP assay in CRF1R-overexpression CHO-K1 cells; assay type: cell-based; conditions: 100% = Sauvagine at 100 nM; for EC50: cAMP
T2 construct: host or cells: CHO-K1 (clone 2)
T2 sequence (P34998 24-415): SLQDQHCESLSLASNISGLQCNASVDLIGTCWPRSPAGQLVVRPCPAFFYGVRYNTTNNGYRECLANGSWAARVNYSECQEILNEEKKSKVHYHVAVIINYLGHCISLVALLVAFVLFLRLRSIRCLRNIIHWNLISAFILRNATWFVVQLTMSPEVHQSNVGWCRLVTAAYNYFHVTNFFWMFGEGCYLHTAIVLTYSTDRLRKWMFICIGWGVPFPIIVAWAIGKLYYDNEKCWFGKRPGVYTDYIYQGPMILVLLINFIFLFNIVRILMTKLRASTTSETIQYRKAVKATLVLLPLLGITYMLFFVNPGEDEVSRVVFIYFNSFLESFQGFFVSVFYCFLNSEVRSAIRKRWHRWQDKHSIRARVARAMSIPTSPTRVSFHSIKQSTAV
How it was run: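 The method mirrors that used with TeloHAEC cells. Here, thawed clone 2 cells seeded at 4000 cells/well are tested, and 100 nM Sauvagine sets the top of the activation scale.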

Compound: CC[C@H](C)[C@H](NC(=O)[C@H](CCC(N)=O)NC(=O)[C@H](CCCCNC(=O)CC[C@H](NC(=O)CCCCCCCCCCCCCCC(=O)O)C(=O)O)NC(=O)[C@H](CC(C)C)NC(=O)[C@H](CCCCN)NC(=O)[C@@H](NC(=O)[C@@H]1CCCN1C(=O)[C@H](NC(=O)[C@H](CC(=O)O)NC(=O)[C@H](CC(C)C)NC(=O)[C@H](CO)NC(=O)[C@H](CC(C)C)NC(=O)[C@@H](NC(=O)CC(C)C)C(C)C)C(C)C)[C@@H](C)CC)C(=O)N[C@@H](CC(C)C)C(=O)N[C@@H](CC(C)C)C(=O)N[C@@H](CCCCN)C(=O)N[C@@H](CCC(N)=O)C(=O)N[C@@H](CCC(=O)O)C(=O)N[C@@H](CCCNC(=N)N)C(=O)N[C@@H](CCC(N)=O)C(=O)N[C@@H](CCCCN)C(=O)N[C@@H](CCCCN)C(=O)N[C@@H](CCC(N)=O)C(=O)N[C@@H](CCCNC(=N)N)C(=O)N[C@@H](CCC(=O)O)C(=O)N[C@@H](CCC(N)=O)C(=O)N[C@@H](C)C(=O)N[C@@H](CCC(=O)O)C(=O)N[C@@H](CCCCN)C(=O)N[C@@H](CC(N)=O)C(=O)N[C@@H](CCCCN)C(=O)N[C@@H](CCC(N)=O)C(=O)N[C@H](C(=O)N[C@@H](CC(C)C)C(=O)N[C@@H](CCC(=O)O)C(=O)N[C@@H](CCC(N)=O)C(=O)N[C@H](C(N)=O)C(C)C)[C@@H](C)CC [compound 9] (Isovaleryl-VLSLD[dV]PIKLK([γGlu-C16 diacid])QILLKQERQKKQREQAEKNKQILEQV-NH2)
- EC50 (human CRF2a receptor): 0.16 nM
- Emax (% I) (CFR1R receptor): 77 % I

Compound: CC[C@H](C)[C@H](NC(C)=O)C(=O)N[C@H](C(=O)N[C@@H](CC(C)C)C(=O)N[C@@H](CO)C(=O)N[C@@H](CC(C)C)C(=O)N[C@@H](CC(=O)O)C(=O)N[C@@H](C(=O)N1CCC[C@H]1C(=O)N[C@H](C(=O)N[C@@H](CCCCN)C(=O)N[C@@H](CC(C)C)C(=O)N[C@@H](CCCCNC(=O)CC[C@H](NC(=O)CCCCCCCCCCCCCCC(=O)O)C(=O)O)C(=O)N[C@@H](CCC(N)=O)C(=O)NC(C)(C)C(=O)N[C@@H](CC(C)C)C(=O)N[C@@H](CC(C)C)C(=O)N[C@@H](CCCCN)C(=O)N[C@@H](CCC(N)=O)C(=O)N[C@@H](CCC(=O)O)C(=O)N[C@@H](CCCNC(=N)N)C(=O)N[C@@H](CCC(N)=O)C(=O)N[C@@H](CCCCN)C(=O)N[C@@H](CCCCN)C(=O)N[C@@H](CCC(N)=O)C(=O)N[C@@H](CCCNC(=N)N)C(=O)N[C@@H](CCC(=O)O)C(=O)N[C@@H](CCC(N)=O)C(=O)N[C@@H](C)C(=O)N[C@@H](CCC(=O)O)C(=O)N[C@@H](CCCCN)C(=O)N[C@@H](CC(N)=O)C(=O)N[C@H](C(=O)N[C@@H](CCC(N)=O)C(=O)N[C@H](C(=O)N[C@@H](CC(C)C)C(=O)N[C@@H](CCC(=O)O)C(=O)N[C@@H](CCC(N)=O)C(=O)N[C@H](C(N)=O)C(C)C)[C@@H](C)CC)C(C)C)[C@@H](C)CC)C(C)C)C(C)C [compound 18] (Ac-IVLSLD[dV]PIKLK([γGlu-C16 diacid])Q[Aib]LLKQERQKKQREQAEKNVQILEQV-NH2)
- EC50 (human CRF2a receptor): 3.55 nM
- Emax (% I) (CFR1R receptor): 10 % I
- EC50 (CFR1R receptor): > 250 nM

Compound: CC[C@H](C)[C@H](NC)C(=O)N[C@H](C(=O)N[C@@H](CC(C)C)C(=O)N[C@@H](CO)C(=O)N[C@@H](CC(C)C)C(=O)N[C@@H](CC(=O)O)C(=O)N[C@@H](C(=O)N1CCC[C@H]1C(=O)N[C@H](C(=O)N[C@@H](CCCCN)C(=O)N[C@@](C)(CC(C)C)C(=O)N[C@@H](CCCCNC(=O)CC[C@H](NC(=O)CCCCCCCCCCCCCCC(=O)O)C(=O)O)C(=O)N[C@@H](CCCCN)C(=O)N[C@H](C(=O)N[C@@H](CC(C)C)C(=O)N[C@@H](CC(C)C)C(=O)N[C@@H](CCC(=O)O)C(=O)N[C@@H](CCC(N)=O)C(=O)N[C@@H](CCC(=O)O)C(=O)N[C@@H](CCCCN)C(=O)N[C@@H](CCC(N)=O)C(=O)N[C@@H](CCCCN)C(=O)N[C@@H](CCCCN)C(=O)N[C@@H](CCC(N)=O)C(=O)N[C@@H](CCCNC(=N)N)C(=O)N[C@@H](CCC(=O)O)C(=O)N[C@@H](CCC(N)=O)C(=O)N[C@@H](C)C(=O)N[C@@H](CCC(=O)O)C(=O)N[C@H](C(=O)N[C@@H](CC(N)=O)C(=O)N[C@H](C(=O)N[C@@H](CCC(N)=O)C(=O)N[C@H](C(=O)N[C@@H](CC(C)C)C(=O)N[C@@H](C)C(=O)N[C@@H](CCC(N)=O)C(=O)N[C@H](C(N)=O)C(C)C)[C@@H](C)CC)C(C)C)[C@@H](C)O)[C@@H](C)CC)[C@@H](C)CC)C(C)C)C(C)C [compound 67] (H-[NMeI]VLSLD[dV]PIK[αMeL]K([γGlu-C16 diacid])KILLEQEKQKKQREQAETNVQILAQV-NH2)
- EC50 (human CRF2a receptor): 0.34 nM
- Emax (% I) (CFR1R receptor): 8 % I
- EC50 (CFR1R receptor): > 250 nM

Compound: CC[C@H](C)[C@H](NC(C)=O)C(=O)N[C@H](C(=O)N[C@@H](CC(C)C)C(=O)N[C@@H](CO)C(=O)N[C@@H](CC(C)C)C(=O)N[C@@H](CC(=O)O)C(=O)N[C@@H](C(=O)N1CCC[C@H]1C(=O)N[C@H](C(=O)N[C@@H](CCCCN)C(=O)N[C@@H](CC(C)C)C(=O)N[C@@H](CCCCNC(=O)CC[C@H](NC(=O)CCCCCCCCCCCCCCC(=O)O)C(=O)O)C(=O)N[C@@H](CCCCN)C(=O)N[C@H](C(=O)N[C@@H](CC(C)C)C(=O)N[C@@H](CC(C)C)C(=O)N[C@@H](CCC(=O)O)C(=O)N[C@@H](CCC(N)=O)C(=O)N[C@@H](CCC(=O)O)C(=O)N[C@@H](CCCCN)C(=O)N[C@@H](CCC(N)=O)C(=O)N[C@@H](CCCCN)C(=O)N[C@@H](CCCCN)C(=O)N[C@@H](CCC(N)=O)C(=O)N[C@@H](C)C(=O)N[C@@H](CCC(=O)O)C(=O)N[C@@H](CCC(N)=O)C(=O)N[C@@H](C)C(=O)N[C@@H](CCC(=O)O)C(=O)N[C@H](C(=O)N[C@@H](CC(N)=O)C(=O)NC(C)(C)C(=O)N[C@@H](CCC(N)=O)C(=O)N[C@H](C(=O)N[C@@H](CC(C)C)C(=O)N[C@@H](C)C(=O)N[C@@H](CCC(N)=O)C(=O)N[C@H](C(N)=O)C(C)C)[C@@H](C)CC)[C@@H](C)O)[C@@H](C)CC)[C@@H](C)CC)C(C)C)C(C)C [compound 167] (Ac-IVLSLD[dV]PIKLK([γGlu-C16 diacid])KILLEQEKQKKQAEQAETN[Aib]QILAQV-NH2)
- EC50 (human CRF2a receptor): 1.15 nM
- Emax (% I) (CFR1R receptor): 7 % I
- EC50 (CFR1R receptor): > 250 nM

Compound: CC[C@H](C)[C@H](NC(C)=O)C(=O)N[C@H](C(=O)N[C@@H](CC(C)C)C(=O)N[C@@H](CO)C(=O)N[C@@H](CC(C)C)C(=O)N[C@@H](CC(=O)O)C(=O)N[C@@H](C(=O)N1CCC[C@H]1C(=O)N[C@H](C(=O)N[C@@H](CCCCN)C(=O)N[C@@H](CC(C)C)C(=O)N[C@@H](CCCCNC(=O)CC[C@H](NC(=O)CCCCCCCCCCCCCCCCC(=O)O)C(=O)O)C(=O)N[C@@H](CCCCN)C(=O)N[C@H](C(=O)N[C@@H](CC(C)C)C(=O)N[C@@H](CC(C)C)C(=O)N[C@@H](CCC(=O)O)C(=O)N[C@@H](CCC(N)=O)C(=O)N[C@@H](CCC(=O)O)C(=O)N[C@@H](CCCCN)C(=O)N[C@@H](CCC(N)=O)C(=O)N[C@@H](CCCCN)C(=O)N[C@@H](CCCCN)C(=O)N[C@@H](CCC(N)=O)C(=O)N[C@@H](CCCNC(=N)N)C(=O)N[C@@H](CCC(=O)O)C(=O)N[C@@H](CCC(N)=O)C(=O)N[C@@H](C)C(=O)N[C@@H](CCC(=O)O)C(=O)N[C@H](C(=O)N[C@@H](CC(N)=O)C(=O)N[C@@H](C)C(=O)N[C@@H](CCC(N)=O)C(=O)N[C@H](C(=O)N[C@@H](CC(C)C)C(=O)N[C@@H](C)C(=O)N[C@@H](CCC(N)=O)C(=O)N[C@H](C(N)=O)C(C)C)[C@@H](C)CC)[C@@H](C)O)[C@@H](C)CC)[C@@H](C)CC)C(C)C)C(C)C [compound 126] (Ac-IVLSLD[dV]PIKLK([γGlu-C18 diacid])KILLEQEKQKKQREQAETNAQILAQV-NH2)
- EC50 (human CRF2a receptor): 0.05 nM
- Emax (% I) (CFR1R receptor): 20 % I
- EC50 (CFR1R receptor): > 250 nM
